From patent US20250099420A1, “SMALL MOLECULE MODULATORS OF GPR139 COMPLEX” (University of Florida Research Foundation, Incorporated, priority 2022, published 2025)
Where two headings read alike, the source gives them in different places.

How the values were obtained:
parental HEK cells = assay: HEK parental Agonist Counterscreen Assay (non-transfected cells); type: cell-based; details: for Averaged Max % Response (±St. Dev.): activity relative to known control
Description: The high control for the agonist counterscreen was Forskolin not acetylcholine.

GPR139 = biological target: T1, GPR139 (Homo sapiens, UniProt Q6DWJ6); assay: GPR139 Agonist titration / agonist counterscreen assay (calcium detection, HEK-GPR139 cells); type: cell-based; set-up: expressed in transfected cells; host or cells: HEK Aequorin cells, Maxcyte transient transfection; details: GPR139 Agonist Activity; for Averaged Max % Response (±St. Dev.): activity relative to known control; for EC50: read-out: EC50
T1 sequence (Q6DWJ6 1-353): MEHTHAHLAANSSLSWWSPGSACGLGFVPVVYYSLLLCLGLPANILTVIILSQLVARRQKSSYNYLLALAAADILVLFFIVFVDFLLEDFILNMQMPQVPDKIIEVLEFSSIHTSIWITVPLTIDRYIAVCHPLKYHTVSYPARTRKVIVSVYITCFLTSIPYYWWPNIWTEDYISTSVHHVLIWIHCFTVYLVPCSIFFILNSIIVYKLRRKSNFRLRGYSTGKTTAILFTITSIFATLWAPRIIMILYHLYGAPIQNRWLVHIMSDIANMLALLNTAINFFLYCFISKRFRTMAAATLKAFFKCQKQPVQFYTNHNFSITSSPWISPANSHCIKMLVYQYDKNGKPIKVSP
Procedure: GPR activity was assessed using a calcium detection assay. […] Negative control samples were treated with DMSO. […] Intracellular calcium was measured using Calcium 5.

[1] = Homo sapiens, HEK293, HEK Agonist Activity section of Table 4 (parental HEK counterscreen)
[2] = Homo sapiens, HEK293, HEK Agonist Activity, parental non-transfected HEK cells
[3] = values printed in E-notation without unit
[4] = HEK Agonist Activity section of Table 4 (parental HEK counterscreen)

Row | SMILES | Lipophilic Efficiency (logD) (parental HEK cells; HEK Agonist Activity section) | Lipophilic Efficiency (logP) (parental HEK cells; HEK Agonist Activity section) | Averaged Max % Response (±St. Dev.) (parental HEK cells; HEK Agonist Activity section) [%] | EC50 (parental HEK cells; [1]) [µM] | Efficiency Ligand (GPR139) | Hill Slope (GPR139) | Lipophilic Efficiency (logD) (GPR139) | Lipophilic Efficiency (logP) (GPR139) | Averaged Max % Response (±St. Dev.) (GPR139) [%] | Lipophilic Efficiency (logD) (parental HEK cells; HEK Agonist Activity) | Lipophilic Efficiency (logP) (parental HEK cells; HEK Agonist Activity) | Averaged Max % Response (±St. Dev.) (parental HEK cells; HEK Agonist Activity) [%] | EC50 (parental HEK cells; [2]) [µM] | Lipophilic Efficiency (logD) (GPR139; based on logD) | Lipophilic Efficiency (logP) (GPR139; based on logP) | Hill Slope (GPR139; fitted dose-response curve) | Efficiency Ligand (GPR139; ligand efficiency) | EC50 (GPR139; [3]) [µM] | EC50 (parental HEK cells; [4]) [µM] | EC50 (GPR139; HEK-GPR139 cells) [µM]
1 | C#CC1=C(CCCc2ccc(CC)cc2)CC(CCc2ccccc2CC)=C1 [SR-01000363853] | 1.79 | 1.79 | −6.20 ± 7.21 | > 14.1 | 0.29 | 0.77 | 2.73 | 2.73 | 87.50 ± 15.37 |  |  |  |  |  |  |  |  |  |  | 
2 | Cc1ccc(CNc2nc3ccccc3n2CCN2CCOCC2)cc1 [SR-01000364205] | 1.29 | 1.08 | −1.19 ± 1.27 | > 14.1 | 0.33 | 1.55 | 2.50 | 2.29 | 94.68 ± 16.83 |  |  |  |  |  |  |  |  |  |  | 
3 | COc1cccc(C(=O)NNC(=O)COc2ccc(C)cc2Br)c1 [SR-01000369718] |  |  |  |  |  |  |  |  | 111.46 ± 12.99 | 1.98 | 1.98 | 7.35 ± 13.00 | > 14.1 | 5.36 | 5.36 | 0.33 | 0.48 | 0.0059 |  | 
4 | CC(Oc1ccc(Cl)cc1Cl)C(=O)NNC(=O)COc1ccccc1 (stereo not drawn) [SR-01000370374] | 1.71 | 1.66 | 4.76 ± 6.67 | > 14.1 |  |  |  |  | 100.37 ± 4.50 |  |  |  |  | 3.80 | 3.75 | 0.87 | 0.39 | 0.114 |  | 
5 | CC(C(=O)NCCn1nnn(-c2ccccc2)c1=O)n1nc2ccccc2n1 (stereo not drawn) [SR-01000373848] | 1.47 | 1.47 | 7.32 ± 0.96 |  | 0.32 | 0.90 | 3.07 | 3.07 | 97.42 ± 13.41 |  |  |  |  |  |  |  |  |  | > 14.1 | 0.354
6 | CCSc1nc2sccn2c(=O)c1C(=O)NC(C)c1ccccc1 (stereo not drawn) [SR-01000378352] | 1.53 | 1.53 | 8.83 ± 9.35 | > 14.1 | 0.36 | 1.14 | 2.89 | 2.89 | 93.30 ± 10.83 |  |  |  |  |  |  |  |  |  |  | 0.616
7 | CS(=O)(=O)c1cccc(C(=O)NCCCN2CCc3ccccc32)c1 [SR-01000387617] | 2.95 | 2.95 | 2.04 ± 4.49 | > 14.1 | 0.35 | 0.75 | 4.28 | 4.28 | 81.90 ± 12.88 |  |  |  |  |  |  |  |  |  |  | 0.661
8 | O=C(O)c1ccccc1C(=O)c1cccc2ccccc12 [SR-01000391835] | 4.05 | 0.66 | 10.10 ± 5.45 | > 18.3 |  |  |  |  | 104.57 ± 1.81 |  |  |  |  | 5.91 | 2.52 | 0.80 | 0.44 | 0.254 |  | 
9 | CCc1c(C2C(C(=O)OCc3ccccc3)=C(C)CC3=C2C(=O)CCC3)ccc(OC)c1OC (stereo not drawn) [SR-01000406098] | 1.55 | 1.55 | 7.56 ± 6.15 | > 11.5 | 0.24 | 1.97 | 2.46 | 2.46 | 80.99 ± 4.70 |  |  |  |  |  |  |  |  |  |  | 
10 | Cc1ccccc1C(=O)NNC(=O)C(C)Oc1ccc(Cl)cc1Cl (stereo not drawn) [SR-01000410694] | 0.98 | 0.95 | 10.08 ± 3.68 | > 10.2 |  |  |  |  | 91.99 ± 13.68 |  |  |  |  | 2.98 | 2.96 | 1.03 | 0.41 | 0.1 |  | 
11 | Cc1cccc(C(=O)NNC(=O)C(C)Oc2ccc(O)cc2O)c1 (stereo not drawn) [SR-01000410744] |  |  |  |  |  |  |  |  | 114.68 ± 11.76 | 0.98 | 0.95 | 17.10 ± 14.93 | > 10.2 | 5.27 | 5.24 |  | 0.54 | < 0.000517 |  | 
12 | COc1ccc(CCNC(=O)COc2ccc(Cl)cc2Cl)cc1 [SR-01000412367] |  |  |  |  |  |  |  |  | 112.23 ± 25.44 | 1.11 | 1.11 | 5.28 ± 6.57 | > 13 | 4.43 | 4.43 | 0.32 | 0.50 | 0.0062 |  | 
13 | O=C(CC1C(=O)N(c2ccccc2)C(=O)N1Cc1ccc2c(c1)OCO2)Nc1ccc(Cl)cc1 (stereo not drawn) [SR-01000428566] | 0.07 | 0.07 | 40.80 ± 6.00 | > 11.9 | 0.26 | 1.72 | 1.52 | 1.52 | 84.07 ± 18.43 |  |  |  |  |  |  |  |  |  |  | 0.424
14 | COc1ccc(NC(=O)NC(O)(O)c2cccc(C(C)=O)c2)cc1 [SR-01000428888] | 0.38 | 0.38 | −2.45 ± 12.32 | > 16.4 | 0.38 | 0.88 | 2.10 | 2.10 | 105.90 ± 33.97 |  |  |  |  |  |  |  |  |  |  | 0.313
15 | Cc1c(Cl)c(C(F)(F)F)nn1CC(=O)NCc1ccc(Cl)cc1 [SR-01000429212] | 1.05 | 1.05 | −31.95 ± 8.26 | > 18 | 0.34 | 0.88 | 1.94 | 1.94 | 80.96 ± 18.51 |  |  |  |  |  |  |  |  |  |  | 2.3
16 | CCn1c2ccccc2c2cc(C3C(C#N)=C(N)Oc4n[nH]c(C)c43)ccc21 (stereo not drawn) [SR-01000465824] | 1.72 | 1.67 | −11.98 ± 3.62 |  | 0.27 | 1.13 | 2.21 | 2.16 | 68.48 ± 7.96 |  |  |  |  |  |  |  |  |  | > 11.8 | 3.8
17 | CCN(Cc1ccccc1)C(=O)Cn1cnc2sc(O)c(C)c2c1=O [SR-01000468553] | 1.48 | 1.48 | 35.00 ± 2.11 | > 18.5 | 0.36 | 0.84 | 3.11 | 3.11 | 109.12 ± 32.80 |  |  |  |  |  |  |  |  |  |  | 0.437
18 | O=C(CCOc1ccccc1)NCC1COc2ccccc2O1 (stereo not drawn) [SR-01000479007] | 2.56 | 2.56 | 8.46 ± 4.77 |  | 0.40 | 1.21 | 4.24 | 4.24 | 101.79 ± 19.12 |  |  |  |  |  |  |  |  |  | > 13.2 | 0.277
19 | Cc1ccccc1NC(=O)CSC1=C(C#N)C(c2ccccc2C(F)(F)F)C2=C(CCCC2=O)N1 (stereo not drawn) [SR-01000484454] | −0.16 | −0.16 | 27.15 ± 8.69 |  |  |  |  |  | 96.91 ± 19.53 |  |  |  |  | 1.98 | 1.98 | 0.52 | 0.28 | 0.0853 | > 11.9 | 
